Laboratory results as given in patent US20250179059A1 (The Regents of the University of California, priority 2021, published 2025).
pIC50: −log10 of the molar value. Like-named read-outs stand apart in the source and are kept apart here.

What was measured:
[1] = molecular target: T1, human BRD4 bromodomain II (Homo sapiens, UniProt O60885); assay: Bromodomain binding assay (AlphaScreen), BRD4 BDII
T1 construct: human BRD4 bromodomain II [based on Genbank NM_058243, residues 349-460]; host or cells: E. coli
Procedure, shortened: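 E. coli-expressed N-terminal His6-tagged human BRD4 BDII (residues 349-460) or BDI (residues 44-170) was preincubated 30 min at room temperature with compound (10-point, 3-fold) in pH 7.5 HEPES buffer, 1% DMSO. Displacement of biotinylated tetra-acetylated H4 1-21 peptide was read by AlphaScreen, and IC50 came from curve fitting.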

[2] = test system: human SKM-1 acute myeloid leukemia cells; assay: SKM-1 antiproliferation cell-based assay (ATPlite)
Procedure, shortened: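 Log-phase cells in RPMI 1640/15% FBS were seeded at 34722 cells/mL and exposed for 4 days to nine-concentration DMSO serial dilutions in triplicate. Viability was read as ATP luminescence (ATPlite 1step), and IC50 values came from variable-slope non-linear regression.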

[3] = AlphaScreen assay, Table C2, read-out: BRD4 BDII IC50
[4] = Homo sapiens, SKM-1, 96 h, SKM-1 antiproliferation assay, 4 days, Table C2
[5] = BRD4 BDII AlphaScreen assay, read-out: BRD4 BD2 IC50
[6] = Homo sapiens, SKM-1, SKM-1 antiproliferation assay

Row | Structure (SMILES) | pIC50 [1, 3] | GI50 [2, 4] [nM] | pIC50 [1, 5] | GI50 [2, 6] [nM] | GI50 ([2]; SKM-1 antiproliferation assay) [nM]
1 | Cn1cnn(-c2ccc(-c3cc(F)cc(-c4ccnc(N5CCNCC5)c4)c3O)cc2Cl)c1=O [Example 499, 1-(3-chloro-5′-fluoro-2′-hydroxy-3′-(2-(piperazin-1-yl)pyridin-4-yl)-[1,1′-biphenyl]-4-yl)-^4-methyl-1H-1,2,4-triazol-5(4H)-one] | 8.00 to 9.00 | 30 to 300 | – | – | –
2 | CC(=O)Nc1cccc(-c2cc(F)cc(-c3cccc(N4CCC(C)(O)C4)c3)c2O)c1Cl (stereo not drawn) [Example 893] | – | – | < 7.00 | 300 to 3000 | –
3 | CN1CCN(c2cc(-c3cc(F)cc(-c4ccc(N5CCN(C)C5=O)c(Cl)c4)c3O)ccn2)CC1 [Example 441, 1-(3-chloro-5′-fluoro-2′-hydroxy-3′-(2-(4-methylpiperazin-1-yl)pyridin-4-yl)-[1,1′-biphenyl]-4-yl)-3-methylimidazolidin-2-one] | 8.00 to 9.00 | 30 to 300 | – | – | –
4 | CC(=O)NC1CN(c2cc(-c3cc(F)cc(-c4ccc(-n5ccn(C)c5=O)c(Cl)c4)c3O)ccn2)CC12CC2 (stereo not drawn) [Example 767, N-(5-(4-(3′-chloro-5-fluoro-2-hydroxy-4′-(3-methyl-1-oxo-2,3-dihydro-1H-imidazol-1-yl)-[1,1′-biphenyl]-3-yl)pyridin-2-yl)-5-azaspiro[2.4]heptan-7-yl)acetamide] | 9.00 to 11.00 | 0.3 to 30 | – | – | –
5 | CCc1ncc(-c2cc(F)cc(-c3ccc(-n4ccn(C)c4=O)c(Cl)c3)c2O)cc1N1CC[C@@](C)(O)C1 [Example 852, (R)-1-(3-Chloro-3′-(6-ethyl-5-(3-hydroxy-3-methylpyrrolidin-1-yl)pyridin-3-yl)-5′-fluoro-2′-hydroxy-[1,1′-biphenyl]-4-yl)-3-methyl-1H-imidazol-2(3H)-one] | – | – | 9.00 to 11.00 | 0.3 to 30 | –
6 | CN(C)c1ncc(-c2nccc(-c3ccc(-n4ccn(C)c4=O)c(Cl)c3)c2O)cc1N1CCN(C(C)(C)C)CC1 [Example 988, 1-(4-(5′-(4-(tert-butyl)piperazin-1-yl)-6′-(dimethylamino)-3-hydroxy-[2,3′-bipyridin]-4-yl)-2-chlorophenyl)-3-methyl-1H-imidazol-2(3H)-one] | – | – | 8.00 to 9.00 | 0.3 to 30 | –
7 | CN1CCN(c2ccc(-c3cc(F)cc(-c4cnc(C(=O)O)c(N5CCNCC5)c4)c3O)cc2Cl)C1=O [Example 398, 5−(3′-chloro-5-fluoro-2-hydroxy-4′-(3-methyl-2-oxoimidazolidin-1-yl)-[1,1′-biphenyl]-3-yl)-3-(piperazin-1-yl)picolinic acid] | 7.00 to 8.00 | ≥ 3000 | – | – | –
8 | CN1CCCC12CCN(c1cc(-c3cc(F)cc(-c4ccc(-n5ccn(C)c5=O)c(Cl)c4)c3O)ccn1)C2 (stereo not drawn) [Example 637, 1-(3-chloro-5′-fluoro-2′-hydroxy-3′-(2-(1-] | 9.00 to 11.00 | 0.3 to 30 | – | – | –
9 | COc1ncc(-c2cc(F)cc(-c3ccc(-n4ccn(C)c4=O)c(Cl)c3)c2O)cc1N1CCC2(CCN2C(C)C)C1 (stereo not drawn) [Example 879] | – | – | 8.00 to 9.00 | 0.3 to 30 | –
10 | Cn1ccn(-c2ccc(-c3cc(F)cc(-c4ccnc(N5CCCNCC5)c4)c3O)cc2Cl)c1=O [Example 623, 1-(3′-(2-(1,4-diazepan-1-yl)pyridin-4-yl)-3-chloro-5′-fluoro-2′-hydroxy-[1,1′-biphenyl]-4-yl)-3-methyl-1H-imidazol-2(3H)-one] | 9.00 to 11.00 | 0.3 to 30 | – | – | –
11 | Cn1ccn(-c2ccc(-c3cc(F)cc(-c4ccnc(N5CCN6CCCCC6C5)c4)c3O)cc2Cl)c1=O (stereo not drawn) [Example 624, 1-(3-chloro-5′-fluoro-3′-(2-(hexahydro-1H-pyrido[1,2-a]pyrazin-2(6H)-yl)pyridin-4-yl)-2′-hydroxy-[1,1′-biphenyl]-4-yl)-3-methyl-1H-imidazol-2(3H)-one] | 9.00 to 11.00 | 30 to 300 | – | – | –
12 | Cn1ccn(-c2ccc(-c3cc(F)cc(-c4ccnc(N5CC6CC6(N)C5)c4)c3O)cc2Cl)c1=O (stereo not drawn) [Example 721, 1-(3′-(2-(1-amino-3-azabicyclo[3.1.0]hexan-3-yl)pyridin-4-yl)-3-chloro-5′-fluoro-2′-hydroxy-[1,1′-biphenyl]-4-yl)-3-methyl-1H-imidazol-2(3H)-one] | 9.00 to 11.00 | 30 to 300 | – | – | –
13 | CN1CCN(c2ccc(-c3cc(C(C)(C)C)cc(-c4ccnc(N5CCNCC5)c4)c3O)cc2Cl)C1=O [Example 310, 1-(5′-(tert-butyl)-3-chloro-2′-hydroxy-3′-(2-(piperazin-1-yl)pyridin-4-yl)-[1,1′-biphenyl]-4-yl)-3-methylimidazolidin-2-one] | < 7.00 | 300 to 3000 | – | – | –
14 | Cn1ccn(-c2ccc(-c3cc(F)cc(-c4cc(N5CCN6CCCCC6C5)c5cn[nH]c5c4)c3O)cc2Cl)c1=O (stereo not drawn) [Example 601, 1-(3-chloro-5′-fluoro-3′-(4-(hexahydro-1H-pyrido[1,2-a]pyrazin-2(6H)-yl)-1H-indazol-6-yl)-2′-hydroxy-[1,1′-biphenyl]-4-yl)-3-methyl-1H-imidazol-2(3H)-one] | 9.00 to 11.00 | 0.3 to 30 | – | – | –
15 | Cn1ccn(-c2ccc(-c3cc(F)cc(-c4ccnc(C5CCCNC5)c4)c3O)cc2Cl)c1=O (stereo not drawn) [Example 654, 1-(3-chloro-5′-fluoro-2′-hydroxy-3′-(2-(piperidin-3-yl)pyridin-4-yl)-[1,1′-biphenyl]-4-yl)-3-methyl-1H-imidazol-2(3H)-one] | 9.00 to 11.00 | 0.3 to 30 | – | – | –
16 | Cn1ccn(-c2ccc(-c3cc(F)cc(-c4cccc(-c5cccc(N)c5)c4)c3O)cc2Cl)c1=O [Example 862] | – | – | 7.00 to 8.00 | 300 to 3000 | –
17 | CNC1CCN(c2cncc(-c3cc(F)cc(-c4ccc(-n5ccn(C)c5=O)c(Cl)c4)c3O)c2)CC1 [Example 516, 1-(3-chloro-5′-fluoro-2′-hydroxy-3′-(5-(4-(methylamino)piperidin-1-yl)pyridin-3-yl)-[1,1′-biphenyl]-4-yl)-3-methyl-1H-imidazol-2(3H)-one] | 8.00 to 9.00 | 0.3 to 30 | – | – | –
18 | Cn1ccn(-c2ccc(-c3cc(F)cc(-c4ccnc(N5CCN(C[C@H](O)CO)CC5)c4)c3O)cc2Cl)c1=O [Example 621, (S)-1-(3-chloro-3′-(2-(4-(2,3-dihydroxypropyl)piperazin-1-yl)pyridin-4-yl)-5′-fluoro-2′-hydroxy-[1,1′-biphenyl]-4-yl)-3-methyl-1H-imidazol-2(3H)-one] | 9.00 to 11.00 | 0.3 to 30 | – | – | –
19 | Cn1ccn(-c2ccc(-c3cc(F)cc(-c4cccc(C#CC(C)(C)O)c4)c3O)cc2Cl)c1=O [Example 772, 1-(3-chloro-5′-fluoro-2′-hydroxy-3″-(3-hydroxy-3-methylbut-1-yn-1-yl)-[1,1′:3′,1″-terphenyl]-4-yl)-3-methyl-1H-imidazol-2(3H)-one] | 7.00 to 8.00 | 300 to 3000 | – | – | –
20 | CN1CCN(c2ccc(-c3cc(F)cc(-c4cc(C5=CCNCC5)cn(C)c4=O)c3O)cc2Cl)C1=O [Example 401, 5-(3′-chloro-5-fluoro-2-hydroxy-4′-(3-methyl-2-oxoimidazolidin-1-yl)-[1,1′-biphenyl]-3-yl)-1-methyl-1′,2′,3′,6′-tetrahydro-[3,4′-bipyridin]-6(1H)-one] | < 7.00 | 300 to 3000 | – | – | –
21 | Cn1ccn(-c2ccc(-c3cc(F)cc(-c4ccnc(N5CC6CCC(C5)N6)c4)c3O)cc2Cl)c1=O [Example 511, 1-(3′-(2-(3,8-diazabicyclo[3.2.1]octan-3-yl)pyridin-4-yl)-3-chloro-5′-fluoro-2′-hydroxy-[1,1′-biphenyl]-4-yl)-3-methyl-1H-imidazol-2(3H)-one] | 8.00 to 9.00 | 0.3 to 30 | – | – | –
22 | Cn1ccn(-c2ccc(-c3cc(F)cc(-c4cc(NS(C)(=O)=O)nc(N5CCNCC5)c4)c3O)cc2Cl)c1=O [Example 439, N-(4-(3′-chloro-5-fluoro-2-hydroxy-4′-(3-methyl-2-oxo-2,3-dihydro-1H-imidazol-1-yl)-[1,1′-biphenyl]-3-yl)-6-(piperazin-1-yl)pyridin-2-yl)methanesulfonamide] | 9.00 to 11.00 | 30 to 300 | – | – | –
23 | Cn1ccn(-c2ccc(-c3cc(F)cc(-c4ccnc(N5CCC6(CCCO6)C5)c4)c3O)cc2Cl)c1=O (stereo not drawn) [Example 683, 1-(3′-(2-(1-oxa-7-azaspiro[4.4]nonan-7-yl)pyridin-4-yl)-3-chloro-5′-fluoro-2′-hydroxy-[1,1′-biphenyl]-4-yl)-3-methyl-1H-imidazol-2(3H)-one] | 9.00 to 11.00 | 30 to 300 | – | – | –
24 | Cc1cc(-c2ccc(-n3ccn(C)c3=O)c(Cl)c2)c(O)c(-c2cc(N3CCN(C(C)(C)C)CC3)c3nccn3c2)n1 [Example 989, 1-(4-(2-(8-(4-(tert-butyl)piperazin-1-yl)imidazo[1,2-a]pyridin-6-yl)-3-hydroxy-6-methylpyridin-4-yl)-2-chlorophenyl)-3-methyl-1H-imidazol-2(3H)-one] | – | – | 8.00 to 9.00 | – | 0.3 to 30
25 | O=C1CCCN1c1ccc(-c2cccc(-c3cncc(N4CCNCC4)c3)c2O)cc1Cl [Example 262, 1-(3-chloro-2′-hydroxy-3′-(5-(piperazin-l-yl)pyridin-3-yl)-[1,1′-biphenyl]-4-yl)pyrrolidin-2-one] | 8.00 to 9.00 | 30 to 300 | – | – | –
26 | Cn1ccn(-c2ccc(-c3ccnc(-c4cnc(N)c(N5CCN(C(C)(C)C)CC5)c4)c3O)cc2Cl)c1=O [Example 984, 1-(4-(6′-amino-5′-(4-(tert-butyl)piperazin-1-yl)-3-hydroxy-[2,3′-bipyridin]-4-yl)-2-chlorophenyl)-3-methyl-1H-imidazol-2(3H)-one] | – | – | 7.00 to 8.00 | 0.3 to 30 | –
27 | [2H]C([2H])([2H])n1ccn(-c2ccc(-c3cc(C)nc(-c4cccc(N5CCN(C(C)(C)C)CC5)c4)c3O)cc2Cl)c1=O [Example 991, 1-(4-(2-(3-(4-(tert-Butyl)piperazin-1-yl)phenyl)-3-hydroxy-6-methylpyridin-4-yl)-2-chlorophenyl)-3-(methyl-d3)-1,3-dihydro-2H-imidazol-2-one] | – | – | 8.00 to 9.00 | 0.3 to 30 | –
